Consider 20 molecules from patent US10174037B2, “Dihydropyrazolopyrimidinone compounds as PDE2 inhibitors” (Merck Sharp & Dohme Corp., priority 2015, dated 2019).

The target in one experiment is Rhesus PDE2A3 (Macaca mulatta, UniProt B3VTJ2). Put plainly: PDE2 fluorescence polarization (IMAP FP) assay, rhesus PDE2A3. It is filed as biochemical, rhesus macaque. The procedure: A Labcyte Echo 555 (Labcyte, Sunnyvale, Calif.) is used to dispense 200 nL from each well of the titration plate to the 384 well assay plate. Ten microliters of a solution of enzyme (1/2000 final dilution from aliquots; sufficient to produce 20% substrate conversion) was added to the assay plate. Next 10 uL of a separate solution of the substrate FAM-labeled cAMP (50 nM final concentration product # R7506 from Molecular Devices) and the activator cGMP (1 uM final concentration), prepared in the assay buffer (10 mM Tris HCl, pH 7.2, 10 mM MgCl2, 0.05% NaN3 0.01% Tween-20, and 1 mM DTT) was added to the assay plate and shaken to mix. The reaction is allowed to proceed at room temperature for 60 minutes. A binding solution is then made from the kit components, comprised of 80% Solution A, 20% Solution B and binding reagent at a volume of 1/600 the total binding solution. The enzymatic reaction is stopped by addition of 60 μL of the binding solution to each well of the assay plates and the plates are sealed and shaken for 30 seconds. The plate was incubated at room temperature for at least one hour prior to determining the fluorescence polarization (FP). The parallel and perpendicular fluorescence of each well of the plate was measured using a Tecan Genios Pro plate reader (Tecan, Switzerland) or Perkin Elmer EnVision™ plate reader (Waltham, Mass.). Fluorescence polarization (mP) was calculated from the parallel (S) and perpendicular (P) fluorescence of each sample well and the analogous values for the median control well, containing only substrate (So and Po), using the following equation: Polarization (mP)=1000*(S/So−P/Po)/(S/So+P/Po).
Sequence of Rhesus PDE2A3 (B3VTJ2 1-941): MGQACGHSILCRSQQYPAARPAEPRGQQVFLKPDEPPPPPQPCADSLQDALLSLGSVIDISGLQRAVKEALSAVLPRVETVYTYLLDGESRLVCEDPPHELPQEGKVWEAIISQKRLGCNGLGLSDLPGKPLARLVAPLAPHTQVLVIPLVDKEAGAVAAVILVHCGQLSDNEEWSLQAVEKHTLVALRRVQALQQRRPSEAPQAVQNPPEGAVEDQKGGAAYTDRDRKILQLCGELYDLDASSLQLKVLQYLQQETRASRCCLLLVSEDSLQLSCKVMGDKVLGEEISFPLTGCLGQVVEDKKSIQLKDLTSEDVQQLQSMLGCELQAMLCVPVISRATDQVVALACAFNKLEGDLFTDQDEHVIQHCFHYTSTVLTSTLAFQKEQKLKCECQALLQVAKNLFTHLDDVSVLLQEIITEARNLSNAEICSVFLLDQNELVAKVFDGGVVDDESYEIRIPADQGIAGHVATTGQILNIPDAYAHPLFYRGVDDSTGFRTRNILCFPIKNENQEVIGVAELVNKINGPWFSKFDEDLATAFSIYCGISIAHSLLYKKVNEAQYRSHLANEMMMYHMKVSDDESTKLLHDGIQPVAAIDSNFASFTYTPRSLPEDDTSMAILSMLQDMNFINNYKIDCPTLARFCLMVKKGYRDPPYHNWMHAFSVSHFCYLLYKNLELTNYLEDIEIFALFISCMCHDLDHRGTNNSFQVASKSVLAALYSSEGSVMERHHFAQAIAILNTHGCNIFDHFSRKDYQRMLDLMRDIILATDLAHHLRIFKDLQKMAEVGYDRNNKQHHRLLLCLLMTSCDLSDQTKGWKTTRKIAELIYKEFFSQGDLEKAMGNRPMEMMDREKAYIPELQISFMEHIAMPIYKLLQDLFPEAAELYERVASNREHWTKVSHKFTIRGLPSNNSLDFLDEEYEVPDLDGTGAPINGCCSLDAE
Dose-inhibition profiles for each compound were characterized by fitting the mP data to a four-parameter equation given below.
An apparent (KM) for FAM-labeled cAMP of ˜10 uM was used.

A further experiment has as its target human PDE2A1 (Homo sapiens (Human), UniProt O00408). Put plainly: PDE selectivity IMAP FP assay, human PDE2A1. Type of experiment: biochemical. Particulars: Human PDE2. A digest of the protocol:
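IMAP fluorescence polarization assay; PDE2 substrate 50 nM FAM-cAMP containing 1000 nM cGMP, enzyme diluted for 20% substrate conversion, in 10 mM Tris HCl pH 7.2, 10 mM MgCl2, 1 mM DTT. Reaction 60 min at room temperature, stopped with IMAP binding solution; polarization read after 1 h. Ki reported.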

Where [1] appears, read: Lab B, read-out: Rhesus PDE2 Ki (nM) Lab B.
[2] abbreviates: Lab B, read-out: Human PDE2 Ki (nM) Lab B.
[3] abbreviates: Lab A, read-out: Rhesus PDE2 Ki (nM) Lab A.
[4] abbreviates: Lab A, read-out: Human PDE2 Ki (nM) Lab A.

Read-outs that look alike come from different tables or passages of the source.

Sequence of human PDE2A1 (O00408 other isoform, or with tags, fused parts or gaps): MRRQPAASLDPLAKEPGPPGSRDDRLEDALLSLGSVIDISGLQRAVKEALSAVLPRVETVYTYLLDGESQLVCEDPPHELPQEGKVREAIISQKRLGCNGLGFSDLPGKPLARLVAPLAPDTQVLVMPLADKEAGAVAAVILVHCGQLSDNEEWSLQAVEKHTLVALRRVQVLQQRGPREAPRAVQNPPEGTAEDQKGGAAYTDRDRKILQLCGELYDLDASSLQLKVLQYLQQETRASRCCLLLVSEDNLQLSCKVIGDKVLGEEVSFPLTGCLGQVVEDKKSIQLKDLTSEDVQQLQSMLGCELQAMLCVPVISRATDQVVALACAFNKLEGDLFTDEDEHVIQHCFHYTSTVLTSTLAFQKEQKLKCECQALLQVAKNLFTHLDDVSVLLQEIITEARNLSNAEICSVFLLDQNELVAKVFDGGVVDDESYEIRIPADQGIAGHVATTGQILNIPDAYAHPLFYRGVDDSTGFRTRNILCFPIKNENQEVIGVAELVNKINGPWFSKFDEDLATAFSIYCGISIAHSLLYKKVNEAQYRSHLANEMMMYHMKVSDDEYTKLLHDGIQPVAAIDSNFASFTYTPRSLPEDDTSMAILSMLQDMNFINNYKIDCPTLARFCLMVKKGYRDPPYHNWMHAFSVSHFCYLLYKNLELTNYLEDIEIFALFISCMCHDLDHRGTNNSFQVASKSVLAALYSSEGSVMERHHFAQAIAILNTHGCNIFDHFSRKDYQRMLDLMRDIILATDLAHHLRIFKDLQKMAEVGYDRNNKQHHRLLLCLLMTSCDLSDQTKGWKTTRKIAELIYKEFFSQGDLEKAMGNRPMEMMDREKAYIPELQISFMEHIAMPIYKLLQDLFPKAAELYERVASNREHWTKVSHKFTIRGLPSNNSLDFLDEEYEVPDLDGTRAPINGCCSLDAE

Usually Ki stands for a measure of affinity in units of concentration, obtained from inhibition or displacement. Consider `C[C@H](c1ccc(C(F)(F)F)c(F)c1)n1nc(CF)c2c(=O)[nH]c(O)nc21` (mixture of isomers) [Example 34, (R)- and (S)-1-(1-(3-Fluoro-4-(trifluoromethyl)phenyl)ethyl)-3-(fluoromethyl)-6-hydroxy-H-pyrazolo[3,4-d]pyrimidin-4(5H)-one], for which the Ki on Rhesus PDE2A3 (setting [1]) came out at 2.4 nM; on human PDE2A1 (setting [2]) it was 2.1 nM.

`CC(c1ccc(OC(F)(F)F)c(F)c1)n1nc(CC(F)(F)F)c2c(=O)[nH]c(O)nc21` (racemic) [Example 229, 1-(1-(3-Fluoro-4-(trifluoromethoxy)phenyl)ethyl)-6-hydroxy-3-(2,2,2-trifluoroethyl)-1H-pyrazolo[3,4-d]pyrimidin-4(5H)-one]: the Ki on Rhesus PDE2A3 (setting [1]) was 13 nM; at human PDE2A1 (setting [2]), 9.6 nM.

In the case of `CC(c1ccc(OC(F)(F)F)cc1)n1nc(CC(F)(F)F)c2c(=O)[nH]c(O)nc21` (racemic) [Example 230, 6-Hydroxy-3-(2,2,2-trifluoroethyl)-1-(1-(4-(trifluoromethoxy)phenyl)ethyl)-1H-pyrazolo[3,4-d]pyrimidin-4(5H)-one], the values for the Ki on Rhesus PDE2A3 (setting [1]) and at human PDE2A1 (setting [2]) were 21 nM and 13 nM, respectively. In the case of `CC(c1ccc(S(F)(F)(F)(F)F)cc1)n1nc(CC(F)(F)F)c2c(=O)[nH]c(O)nc21` (racemic) [Example 231, 6-Hydroxy-3-(2,2,2-trifluoroethyl)-1-(1-(4-(pentafluorosulfanyl)phenyl)ethyl)-1H-pyrazolo[3,4-d]pyrimidin-4(5H)-one], the results for the Ki at Rhesus PDE2A3 (setting [1]) and on human PDE2A1 (setting [2]) were 25 nM and 18 nM, respectively. On to `CC(c1ccc(C(F)(F)F)c(F)c1)n1nc(CO)c2c(=O)[nH]c(O)nc21` (single isomer, unassigned) [Example 1], for which the Ki worked out at 13 nM on Rhesus PDE2A3 (setting [1]) and 11 nM on human PDE2A1 (setting [2]). As for `CC(C)C(c1ccc(C(F)(F)F)cc1)n1nc(CO)c2c(=O)[nH]c(O)nc21` (single isomer, unassigned) [Example 13, (S)- or (R)-6-Hydroxy-3-(hydroxymethyl)-1-(2-methyl-1-(4-(trifluoromethyl)phenyl)propyl)-1H-pyazolo[3,4-d]pyrimidin-4(5H)-one], the Ki on Rhesus PDE2A3 (setting [1]) was determined as 9.2 nM; on human PDE2A1 (setting [2]), 8.3 nM. For the molecule `CC(c1ccc(C(F)(F)F)cc1)n1nc(CO)c2c(=O)[nH]c(O)nc21` (single isomer, unassigned) [Example 19, (S)- or (R)-6-Hydroxy-3-(hydroxymethyl)-1-{1-[4-(trifluoromethyl)phenyl]ethyl}-1,5-dihydro-4H-pyrazolo[3,4-d]pyrimidin-4-one], the Ki was found to be 14 nM on Rhesus PDE2A3 (setting [3]), 20 nM at Rhesus PDE2A3 (setting [1]), 9 nM on human PDE2A1 (setting [4]) and 24 nM at human PDE2A1 (setting [2]). As for `CC(c1ccc(S(F)(F)(F)(F)F)cc1)n1nc(CO)c2c(=O)[nH]c(O)nc21` (single isomer, unassigned) [Example 21, (S)- or (R)-6-Hydroxy-3-(hydroxymethyl)-1-{1-[4-(pentafluorosulfanyl)phenyl]ethyl}-1,5-dihydro-4H-pyrazolo[3,4-d]pyrimidin-4-one], the Ki on Rhesus PDE2A3 (setting [3]) came to 20 nM; on Rhesus PDE2A3 (setting [1]), 27 nM; at human PDE2A1 (setting [4]) it was 13 nM; on human PDE2A1 (setting [2]), 28 nM.

As for `CC(C)C(c1ccc(C(F)(F)F)c(F)c1)n1nc(CO)c2c(=O)[nH]c(O)nc21` (single isomer, unassigned) [Example 27, (R)- or (S)-1-(1-(3-Fluoro-4-(trifluoromethyl)phenyl)-2-methylpropyl)-6-hydroxy-3-(hydroxymethyl)-1H-pyrazolo[3,4-d]pyrimidin-4(5H)-one], the results for the Ki on Rhesus PDE2A3 (setting [1]) and on human PDE2A1 (setting [2]) were 5.2 nM and 7 nM, respectively.

On to `CC(c1ccc(OC(F)(F)F)cc1)n1nc(C(F)F)c2c(=O)[nH]c(O)nc21` (single isomer, unassigned) [Example 273, (R)- or (S)-3-(Difluoromethyl)-6-hydroxy-1-(1-(4-(trifluoromethoxy)phenyl)ethyl)-1H-pyrazolo[3,4-d]pyrimidin-4(5H)-one], for which the Ki at Rhesus PDE2A3 (setting [1]) is 113 nM. On to `O=c1[nH]c(O)nc2c1c(C(F)F)nn2C(c1ccc(C(F)(F)F)cc1)C1CC1` (single isomer, unassigned) [Example 280, (S)- or (R)-1-(Cyclopropyl(4-(trifluoromethyl)phenyl)methyl)-3-(difluoromethyl)-6-hydroxy-1H-pyrazolo[3,4-d]pyrimidin-4(5H)-one], for which the Ki at Rhesus PDE2A3 (setting [1]) worked out at 85 nM. For `CC(C)(C)C(c1ccc(C(F)(F)F)cc1)n1nc(C(F)F)c2c(=O)[nH]c(O)nc21` (single isomer, unassigned) [Example 283, (R)- or (S)-3-(Difluoromethyl)-1-(2,2-dimethyl-1-(4-(trifluoromethyl)phenyl)propyl)-6-hydroxy-1H-pyrazolo[3,4-d]pyrimidin-4(5H)-one], the Ki on Rhesus PDE2A3 (setting [1]) is about 1510 nM.

As to `CC(C)(C)C(c1ccc(C(F)(F)F)cc1)n1nc(C(F)F)c2c(=O)[nH]c(O)nc21` (single isomer, unassigned) [Example 284, (S)- or (R)-3-(Difluoromethyl)-1-(2,2-dimethyl-1-(4-(trifluoromethyl)phenyl)propyl)-6-hydroxy-1H-pyrazolo[3,4-d]pyrimidin-4(5H)-one], on Rhesus PDE2A3 (setting [1]), the Ki was found to be 206 nM. The same measure, in the same setting: with `CCC(c1ccc(C(F)(F)F)cc1)n1nc(C(F)F)c2c(=O)[nH]c(O)nc21` (single isomer, unassigned) [Example 285, (R)- or (S)-3-(Difluoromethyl)-6-hydroxy-1-(1-(4-(trifluoromethyl)phenyl)propyl)-1H-pyrazolo[3,4-d]pyrimidin-4(5H)-one] the figure was 232 nM; with `N#CCc1nn(C(c2ccc(C(F)(F)F)cc2)C2CC2)c2nc(O)[nH]c(=O)c12` (single isomer, unassigned) [Example 297], 207 nM; with `CC(c1ccc(OC(F)(F)F)c(F)c1)n1nc(CC#N)c2c(=O)[nH]c(O)nc21` (single isomer, unassigned) [Example 300, (S)- or (R)-2-(1-(1-(3-Fluoro-4-(trifluoromethoxy)phenyl)ethyl)-6-hydroxy-4-oxo-4,5-dihydro-1H-pyrazolo[3,4-d]pyrimidin-3-yl)acetonitrile], 101 nM. Take `Cc1ccc(C(C)n2nc(CO)c3c(=O)[nH]c(O)nc32)cc1` (stereo not drawn) [Example 8]: the Ki on Rhesus PDE2A3 (setting [3]) came out at 411 nM. For the molecule `O=c1[nH]c(O)nc2c1c(CO)nn2Cc1ccc(C(F)(F)F)cc1` [Example 9, 6-Hydroxy-3-(hydroxymethyl)-1-[4-(trifluoromethyl)benzyl]-1,5-dihydro-4H-pyrazolo[3,4-d]pyrimidin-4-one], the inhibition constant Ki at Rhesus PDE2A3 (setting [3]) was about 548 nM.

Regarding `Cc1nn(Cc2ccc(C(F)(F)F)cc2)c2nc(O)[nH]c(=O)c12` [Example 61, 6-Hydroxy-3-methyl-1-[4-(trifluoromethyl)benzyl]-1,5-dihydro-4H-pyrazolo[3,4-d]pyrimidin-4-one], at Rhesus PDE2A3 (setting [3]), the Ki was about 951 nM. `C[C@@H](c1ccc(C(F)(F)F)cc1)n1nc(COCc2ccccc2)c2c(=O)[nH]c(O)nc21` [Example 303, (S)-3-((Benzyloxy)methyl)-6-hydroxy-1-(1-(4-(trifluoromethyl)phenyl)ethyl)-1,5-dihydro-4H-pyrazolo[3,4-d]pyrimidin-4-one]: on Rhesus PDE2A3 (setting [1]), the Ki turned out to be 206 nM.
